Assay [1] addresses T1, TIP48/TIP49 complex (Homo sapiens, UniProt Q9Y230+Q9Y265).
T1 construct: made in house; host or cells: E. coli
Nature of the assay: ATPase assay of TIP48/TIP49 complex (ADP-Glo). It is filed as biochemical. To be noted: concentration at which the ATPase activity was inhibited by 50%. In a few lines:
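Compound was tested over 10 four-fold concentrations, 200 μM down to 0.0007 μM at 2% DMSO, against E. coli-derived human rTIP48/rTIP49 for 1.5 h at room temperature, pH 7.5 with ATP. ATP hydrolysis was read as ADP-Glo luminescence, normalised to complex-only and no-complex wells, then fitted to dose-response curves.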
(ADP-Glo first removes unused ATP, then detects ADP through luciferase.)

The subject of assay [2] is NCI-H146. The experiment in a line: Cell growth inhibition test, NCI-H146. The class given is cell-based. To be noted: Homo sapiens, 72 h; NCI-H146, Lung cancer, 3 days, CellTiter-Glo. As for the experimental part: (§1) A cell growth inhibition test was carried out by treating a cultured cancer cell line with a test compound for a given period and then counting the number of viable cells by CellTiter-Glo Luminescent Cell Viability Assay (manufactured by Promega Corp.).
(§2) The following cells were inoculated to a 384-well plate containing the compound prepared in advance at predetermined concentrations. […]
(§3) The cells thus inoculated were cultured at 37° C. for 3 days under 5% CO2. […] Then, luminescence intensity was measured using a plate reader.
(§4) The number of viable cells and luminescence intensity have been confirmed to correlate with each other. Therefore, the rate of cell growth was calculated according to the following expression: Rate of cell growth (T/C %) of a test compound-supplemented well=100×[(B−C)/(A−C)] wherein A represents the luminescence intensity (final culture date) of a test compound-free well; B represents the luminescence intensity (final culture date) of a test compound-containing well; and C represents the luminescence intensity (day of cell inoculation) of a well at the start of contact of the cells with the test compound.
(§5) T/C % at the concentration of each of the serially diluted test compounds was determined. […]
(In general: Cellular ATP, detected with luciferase, serves as a proxy for viable cell number.)

Assay [3] relates to RAMOS. The experiment in a line: Cell growth inhibition test, RAMOS. It is filed as cell-based. To be noted: Homo sapiens, 72 h, Lymphoma, 3 days, CellTiter-Glo. How it is done: as §1, §2, §3, §4, §5
Assay [4] relates to MKN45. The experiment in a line: Cell growth inhibition test, MKN45. The class given is cell-based. To be noted: Homo sapiens, MKN-45, 72 h; MKN45, Stomach cancer, 3 days, CellTiter-Glo. As for the experimental part:
as §1, §2, §3, §4, §5

For orientation: IC50 means the concentration needed to halve the response being measured. High values mean a need for much substance, low ones inhibition by little substance. As a reminder, the GI50 is the concentration at which growth is held to half of that of the control. Low values mean greater sensitivity of the cells, high ones lower sensitivity of the cells.

T1 sequence (Q9Y230 whole entry): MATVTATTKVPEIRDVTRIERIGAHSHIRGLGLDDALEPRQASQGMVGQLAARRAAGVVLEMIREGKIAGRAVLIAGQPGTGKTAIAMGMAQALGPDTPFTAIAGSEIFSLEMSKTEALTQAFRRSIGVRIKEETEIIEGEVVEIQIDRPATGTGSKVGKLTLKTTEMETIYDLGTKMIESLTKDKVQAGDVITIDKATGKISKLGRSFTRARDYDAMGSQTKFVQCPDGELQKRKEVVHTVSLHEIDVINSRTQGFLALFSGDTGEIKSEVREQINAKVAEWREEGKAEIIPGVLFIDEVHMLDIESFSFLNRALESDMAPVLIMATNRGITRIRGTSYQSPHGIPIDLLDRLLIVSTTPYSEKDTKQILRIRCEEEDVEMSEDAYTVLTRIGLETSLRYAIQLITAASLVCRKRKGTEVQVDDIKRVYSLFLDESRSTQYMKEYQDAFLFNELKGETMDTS
T1 sequence (Q9Y265 whole entry): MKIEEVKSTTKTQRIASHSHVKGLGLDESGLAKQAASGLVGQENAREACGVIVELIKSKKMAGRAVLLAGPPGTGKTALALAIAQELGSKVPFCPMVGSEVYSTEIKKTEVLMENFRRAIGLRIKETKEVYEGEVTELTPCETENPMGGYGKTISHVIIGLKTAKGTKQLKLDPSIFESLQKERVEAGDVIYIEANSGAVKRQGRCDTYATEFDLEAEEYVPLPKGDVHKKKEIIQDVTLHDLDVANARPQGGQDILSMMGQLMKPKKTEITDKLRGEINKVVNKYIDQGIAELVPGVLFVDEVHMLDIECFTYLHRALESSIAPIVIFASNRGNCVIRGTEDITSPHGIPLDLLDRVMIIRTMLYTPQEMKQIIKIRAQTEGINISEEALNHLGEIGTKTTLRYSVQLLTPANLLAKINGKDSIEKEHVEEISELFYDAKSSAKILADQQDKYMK

The compound `CCOc1ccc(Cl)cc1C(=O)NCC(C)(C)CC(=O)Nc1c([C@H](C)CN(C)C)n(C)n(-c2ccccc2)c1=O` [Example 68, 5-Chloro-N-[4-({5-[(1R)-2-(dimethylamino)-1-methylethyl]-1-methyl-3-oxo-2-phenyl-2,3-dihydro-1H-pyrazol-4-yl}amino)-2,2-dimethyl-4-oxobutyl]-2-ethoxybenzamide] registered a half-maximal inhibitory concentration (IC50) in assay [1] of 70 nM. Besides, the GI50 in assay [2] is 1100 nM; in assay [3] it was 130 nM; in assay [4], 480 nM.
For the compound `CCOc1ncc(Cl)cc1C(=O)NCC(C)(C)CC(=O)Nc1c([C@H](C)CN(C)C)n(C)n(-c2ccccc2)c1=O` [Example 73, 5-Chloro-N-[4-({5-[(1R)-2-(dimethylamino)-1-methylethyl]-1-methyl-3-oxo-2-phenyl-2,3-dihydro-1H-pyrazol-4-yl}amino)-2,2-dimethyl-4-oxobutyl]-2-ethoxypyridine-3-carboxamide], inhibition in assay [1] was half-maximal at 48 nM (IC50). In addition, the GI50 was found to be 2700 nM in assay [2], 220 nM in assay [3] and 1100 nM in assay [4].
In the case of `CCOc1cc(F)c(Cl)cc1C(=O)NCC(C)(C)CC(=O)Nc1c(COC)n(C)n(-c2ccccc2)c1=O` [Example 113, 5-Chloro-2-ethoxy-4-fluoro-N-(4-{[5-(methoxymethyl)-1-methyl-3-oxo-2-phenyl-2,3-dihydro-1H-pyrazol-4-yl]amino}-2,2-dimethyl-4-oxobutyl)benzamide], in assay [1], the IC50 turned out to be 39 nM. Further, the values for the concentration for 50% growth inhibition (GI50) in assay [2], in assay [3] and in assay [4] were 2000 nM, 160 nM and 1000 nM, respectively.
